Legend:
Assay in all cases: relative viability (nuclei count vs DMSO), 5 days (fraction); higher = more cells survive
Selisistat + OSI-027 = compound: C1CC(C2=C(C1)C3=C(N2)C=CC(=C3)Cl)C(=O)N [Selisistat] + COc1cccc2cc(-c3nc([C@H]4CC[C@H](C(=O)O)CC4)n4ncnc(N)c34)[nH]c12 [OSI-027] (partner 0.5 µM)
Summary of the method: (§1)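 Dosing by pin tool came one day after lung cancer cell lines were seeded in 1536-well plates, using either one drug or a fixed anchor-drug dose plus five library-drug doses (not always all listed) in √10 steps. After 5 days, nuclei were counted on 4× images. Relative viability is treated-well nuclei count divided by vehicle-well nuclei count, and values are medians of duplicate plates.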

Selisistat + Linsitinib = compound: C1CC(C2=C(C1)C3=C(N2)C=CC(=C3)Cl)C(=O)N [Selisistat] + C[C@]1(O)C[C@@H](c2nc(-c3ccc4ccc(-c5ccccc5)nc4c3)c3c(N)nccn32)C1 [Linsitinib] (partner 1 µM)
Summary of the method: as §1

Selisistat + Phenformin = compound: C1CC(C2=C(C1)C3=C(N2)C=CC(=C3)Cl)C(=O)N [Selisistat] + N=C(N)NC(=N)NCCc1ccccc1 [Phenformin] (partner 250 µM)
Summary of the method: as §1

Serdemetan + Luminespib = compound: c1ccc2c(CCNc3ccc(Nc4ccncc4)cc3)c[nH]c2c1 [Serdemetan] + CCNC(=O)c1noc(-c2cc(C(C)C)c(O)cc2O)c1-c1ccc(CN2CCOCC2)cc1 [Luminespib] (partner 0.01 µM)
Summary of the method: as §1

Row | Cell Line | relative viability (Selisistat + OSI-027; first compound 0.4 µM) | relative viability (Selisistat + OSI-027; first compound 1.265 µM) | relative viability (Selisistat + OSI-027; first compound 4 µM) | relative viability (Selisistat + OSI-027; first compound 12.65 µM) | relative viability (Selisistat + OSI-027; first compound 40 µM) | relative viability (Selisistat + Linsitinib; first compound 0.4 µM) | relative viability (Selisistat + Linsitinib; first compound 1.265 µM) | relative viability (Selisistat + Linsitinib; first compound 4 µM) | relative viability (Selisistat + Linsitinib; first compound 12.65 µM) | relative viability (Selisistat + Linsitinib; first compound 40 µM) | relative viability (Selisistat + Phenformin; first compound 0.4 µM) | relative viability (Selisistat + Phenformin; first compound 1.265 µM) | relative viability (Selisistat + Phenformin; first compound 4 µM) | relative viability (Selisistat + Phenformin; first compound 12.65 µM) | relative viability (Selisistat + Phenformin; first compound 40 µM) | relative viability (Serdemetan + Luminespib; first compound 0.04 µM) | relative viability (Serdemetan + Luminespib; first compound 0.1265 µM) | relative viability (Serdemetan + Luminespib; first compound 0.4 µM) | relative viability (Serdemetan + Luminespib; first compound 1.265 µM) | relative viability (Serdemetan + Luminespib; first compound 4 µM)
1 | HOP-62 | 0.856 | 0.788 | 0.826 | 0.809 | 0.915 | 1.04 | 1.18 | 1.07 | 0.978 | 0.94 | 0.663 | 0.619 | 0.777 | 0.64 | 0.676 | 0.758 | 0.915 | 0.848 | 0.666 | 0.596
2 | CAL-12T | 0.726 | 0.535 | 0.472 | 0.53 | 0.694 | 0.85 | 0.799 | 0.82 | 0.784 | 0.862 | 0.586 | 0.565 | 0.406 | 0.516 | 0.537 | 0.227 | 0.28 | 0.141 | 0.266 | 0.486
3 | NCI-H520 | 0.311 | 0.216 | 0.257 | 0.248 | 0.206 | 0.823 | 0.954 | 0.982 | 0.967 | 0.969 | 0.598 | 0.485 | 0.577 | 0.533 | 0.528 | 0.255 | 0.204 | 0.232 |  | 0.205
4 | NCI-H1755 | 0.745 | 0.736 | 0.739 | 0.686 | 0.746 | 1.11 | 1.04 | 0.993 | 1.02 | 1.05 | 0.645 | 0.615 | 0.585 | 0.559 | 0.618 | 0.417 | 0.43 | 0.568 | 0.39 | 0.343
5 | NCI-H2023 | 0.492 | 0.405 | 0.347 | 0.401 | 0.406 | 0.686 | 0.581 | 0.662 | 0.735 | 0.569 | 0.413 | 0.398 | 0.455 | 0.312 | 0.357 | 0.818 | 0.857 | 0.721 | 0.334 | 0.193
6 | NCI-H2009 | 0.659 | 0.662 | 0.424 | 0.509 | 0.535 | 1.19 | 1.17 | 1.19 | 1.1 | 1.18 | 0.509 | 0.483 | 0.366 | 0.449 | 0.422 | 0.925 | 0.979 | 0.997 | 1.01 | 0.888

Source: the supplement of paper PMC10307832
